Laboratory results reported in PMC6959289, “Development of a Biosensor for Detection of Benzoic Acid Derivatives in Saccharomyces cerevisiae” (Frontiers in Bioengineering and Biotechnology, 2020).

Molecular target: T1, sBAD (formerly sHbaR); LexA-HbaR ligand-binding domain-B112 synthetic transcription factor (Rhodopseudomonas palustris, UniProt Q9RFR5)
T1 construct: expressed in S. cerevisiae CEN.PK 2C-1
T1 sequence (Q9RFR5 1-241 limits assumed): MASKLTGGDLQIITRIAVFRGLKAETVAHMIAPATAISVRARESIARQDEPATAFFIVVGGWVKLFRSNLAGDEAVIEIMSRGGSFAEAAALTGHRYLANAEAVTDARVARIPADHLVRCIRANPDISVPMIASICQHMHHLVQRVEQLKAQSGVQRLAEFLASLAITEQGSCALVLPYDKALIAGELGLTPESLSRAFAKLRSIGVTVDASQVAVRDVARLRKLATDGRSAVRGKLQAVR
Assay: mCitrine reporter activation in yeast, flow cytometry, dose-response
Type: cell-based, Saccharomyces cerevisiae
Text: mCitrine reporter activation in yeast, flow cytometry, dose-response on sBAD (formerly sHbaR); LexA-HbaR ligand-binding domain-B112 synthetic transcription factor

## CC(=O)Oc1ccccc1C(=O)O [aspirin]
  EC50: 598 ± 283 µM

## O=C(O)c1ccc(O)cc1 [HBA, 4-hydroxybenzoic acid]
  EC50: 749 ± 399 µM

## O=C(O)c1ccccc1 [benzoic acid]
  EC50: 47 ± 20 µM

## Nc1ccc(C(=O)O)cc1 [pABA, 4-aminobenzoic acid]
  EC50: 169 ± 81 µM
